Data reported in patent US9549912B2, “Methods for treating atrial fibrillation” (Armetheon, Inc., priority 2009, dated 2017).
“And” between values parts separate entries of the source, which are not always exact repeats. Identical values can stand only once.

Key:
[1] = Safety, ECG and thyroid function (Example 1); assay type: in vivo, human
Description: Patients were then monitored for at least 3 h continuously post-dose; this included telemetry, vital signs, and oxygen saturations. Electrocardiograms were taken, and the pacemaker data were downloaded prior to drug administration on day 8 and day 14 of each study period.
Criteria for drug discontinuation included a fall in systolic blood pressure (BP) to <90 mmHg systolic, an increase in BP>200 mmHg, intolerable side-effects, a change in rhythm that in the opinion of the investigator constituted a risk to safety, or a QRS increase >50%. Where possible, ECGs of intrinsic rhythm rather than ventricular-paced rhythm were obtained, as paced complexes can be difficult to interpret for QT prolongation. An increase in QT interval >470 ms for intrinsic and >550 ms for paced beats or an increase of 30% was considered significant.
Electrocardiogram parameters (ventricular HR, PR, QRS, QT, QTc interval) were summarized by baseline, dosing period, and washout using descriptive statistics. Changes from baseline in ECG values at day 8 of dosing and day 14 of washout were also summarized. Baseline values of ECG parameters are defined as the mean of three values recorded prior to the first dose of ATI-2042.

[2] = system: sodium, potassium, and calcium ion channels; experiment: Electrophysiological activity in animals: ion channel inhibition
[3] = Safety and tolerability (Example 2); assay type: in vivo, human
Source text: Safety: treatment-emergent adverse event (TEAE) type, severity, and incidence; clinical laboratory assessments, including thyroid function and testicular function (males); coagulation tests; vital signs; physical examinations; ECGs; eye examinations; chest X-rays; and pulmonary function tests.
Statistical methods for safety: Adverse events (AEs) were summarized by system organ class and preferred term. Laboratory parameters and vital signs were summarized by descriptive statistics and shift tables were also created for laboratory parameters. The percent of patients with physical examination findings that changed over the study, with ECG abnormalities by visit, and with corneal deposits were summarized. Chest X-rays and pulmonary function test results were provided in listings.

[4] = system: patients with paroxysmal atrial fibrillation (PAF); experiment: Randomized, double-blind, placebo-controlled study of budiodarone in PAF patients with pacemakers: AT/AF burden, episodes, NSR, GCI (Example 2); assay type: in vivo, human
Source text: The objective of the study is to determine the efficacy of budiodarone in reducing atrial tachyarrhythmia (AT/AF) burden in patients with paroxysmal atrial fibrillation (PAF) compared to placebo, for 12 weeks of treatment, and the safety and tolerability of budiodarone for up to 12 weeks of treatment.
Secondary: to study the effect of budiodarone versus placebo on the number and duration of AT/AF episodes, duration of normal sinus rhythm (NSR) between episodes of AT/AF and on symptoms associated with PAF.
Example 2 describes a multicenter, multinational, randomized, double-blind, placebo-controlled, parallel-group study of the efficacy and safety of budiodarone in patients with PAF. Planned enrollment was up to 140 patients (with eventually 110 enrolled) with proven PAF who had permanently implanted pacemakers with appropriate AT/AF diagnostic and recording capabilities. Potential study participants underwent screening assessments, including the optimization of pacemaker programming for accurate AT/AF detection. Within 30 days after screening assessments began, eligible patients entered a 4-week baseline period (Period 1) when baseline atrial fibrillation burden (AFB) was established followed by randomization to one of three active treatment regimens or placebo for a 12-week treatment period (Period 2), followed by a 4-week washout period (Period 3). During the treatment period, patients received twice-daily (BID) oral doses of 200 mg ATI-2042, 400 mg ATI-2042, 600 mg ATI-2042, or placebo. No study drug was given during the baseline and washout periods.
To be randomized, study participant must have had: an AT/AF burden between 5% and 70% during the baseline period; no evidence of persistent AF (i.e., 7 or more consecutive days of AT/AF with episodes lasting >23 hours); able to have pacemaker atrial antitachyarrhythmia treatment algorithms turned off for the remaining duration of the study.
Efficacy outcome measures were AT/AF burden (total time spent in AT/AF as a percentage of total observation time), number and mean duration of AT/AF episodes, mean duration of NSR, patient global clinical impression (GCI) questionnaire, and University of Toronto Atrial Fibrillation Severity Scale (AFSS).
Statistical methods for efficacy: The primary efficacy analysis was the percent change in the AT/AF burden from baseline to the 12-week treatment period. Pairwise comparisons between each ATI-2042 dose group and the placebo group were performed using the Wilcoxon rank sum test. The primary analysis was based on the mITT population.
For all variables based on the pacemaker data, the Wilcoxon rank sum test was used to compare each ATI-2042 dose group to the placebo group. The Jonckheere-Terpstra test was used to test for a dose response. The Wilcoxon signed rank test was used to test for a significant change from baseline within each treatment group. An analysis of covariance (ANCOVA) was used to compare the percent change from baseline in AT/AF burden among the treatment groups after adjusting for the baseline AT/AF burden. The ANCOVA model contained effects for treatment group and baseline AT/AF burden.
For patient […], the Cochran-Mantel-Haenszel test was used to compare each ATI-2042 dose group to the placebo group. The Jonckheere-Terpstra test was used to test for a dose response.

[5] = Electrophysiological activity in animals: atrial refractoriness, metabolite activity; assay type: in vivo; conditions: animals
[6] = Metabolism and elimination features of budiodarone
[7] = 600 mg BID, Treatment Months 1-3, ITT
[8] = 600 mg BID, Treatment Months 1-3, mITT

## (S)-sec-butyl 2-(3-(4-(2-(diethylamino)ethoxy)-3,5-diiodobenzoyl)benzofuran-2-yl)acetate [ATI-2042]
[1]; 200 mg bid
  PR interval reduction from baseline: 16.6+23.9%
[1]; 400 mg bid
  PR interval reduction from baseline: 11.4+22.6%
[1]; 400 mg bid, patient with AV node ablation, permanently paced
  change in QTc from baseline, one patient: 30 to 60 ms
[1]; 400 mg bid, same patient
  change in paced QTc from baseline, one patient: 15%
[1]; 600 mg bid
  PR interval reduction from baseline: 27.0+32.1%
[1]; 800 mg bid
  PR interval reduction from baseline: 35.1 ± 30.9%
[1]; 200-800 mg bid
  tolerability: generally well tolerated
[1]; all patients, paced or not
  change from baseline QT or QTc with dosing: No patient exhibited >30% change
[1]; between baseline and dosing or washout
  changes in HR, QRS, QT, or QTc: no significant changes
[1]; in vivo
  proarrhythmia, clinical hypothyroidism, hyperthyroidism: no cases of proarrhythmia, clinical hypothyroidism, or hyperthyroidism
  serious AEs: no serious AEs related to study drug
[1]; three patients, from 2.53, 3.51 and 0.68, normal range 0.27-4.2
  thyroid-stimulating hormone level reached after increase, individual patients: 4.82 mU/L and 9.49 mU/L and 16.12 mU/L
[1]; washout
  PR interval reduction from baseline: 30.7 ± 24.3%
[2]
  inhibition of sodium, potassium, and calcium ion channels: inhibition comparable with amiodarone
[3]; 200, 400, 600 mg BID, up to 12 weeks
  tolerability: well tolerated
[3]; BUN unchanged
  creatinine: reversible elevation
[3]; appeared dose related
  ALT: mild, reversible increase
[3]; end of treatment period
  corneal deposits (slit-lamp examination): No patient treated with ATI-2042 developed corneal deposits
[3]; hematuria and high INR
  SAEs possibly related to drug: Only one SAE was possibly related
[3]; in vivo
  amiodarone-like end-organ toxicity (pulmonary fibrosis, corneal deposits, neuropathy, photosensitivity): No evidence of amiodarone-like end-organ toxicity was seen
  thyroid function changes: mild and reversible
[3]; patients on concomitant warfarin
  most frequent TEAEs: changes in INR values
[4]; 200 mg BID, mITT population, not statistically significant
  decrease in AFB: 10%
[4]; 400 mg BID, Treatment Months 1-3, ITT population
  median percent reduction from baseline in AT/AF burden: 54%
[4]; 400 mg BID, Treatment Months 1-3, mITT population
  median percent reduction from baseline in AT/AF burden: 54%
[4]; 400 mg dose cohort
  AF episodes lasting 24 hours (FIG. 6): only a single 24 hour episode
[4]; 600 mg
  patients with AF eradicated during the study period: More than half the patients had their AF eradicated
  reduction of number and duration of AF episodes below baseline (FIG. 3): about 70%
[4]; 600 mg BID, Treatment Month 3, ITT population
  median percent reduction in AT/AF burden: 80%
[4]; 600 mg BID, Treatment Month 3, mITT population
  median percent reduction in AT/AF burden: 83%
[4]; [7]
  median percent change from baseline in duration of AT/AF episodes: −51.3%
  median percent change from baseline in number of AT/AF episodes: −52.9%
  median percent increase from baseline in duration of NSR: 208.8%
[4]; 600 mg BID, Treatment Months 1-3, ITT population
  median percent reduction from baseline in AT/AF burden: 74%
[4]; [8]
  median percent change from baseline in duration of AT/AF episodes: −51.3%
  median percent change from baseline in number of AT/AF episodes: −62.1%
  median percent increase from baseline in duration of NSR: 241.8%
[4]; 600 mg BID, Treatment Months 1-3, mITT population
  median percent reduction from baseline in AT/AF burden: 75%
[4]; 600 mg BID, third month, paragraph refers to ITT population
  median percentage reduction in AFB: 83%
[4]; 600 mg dose group
  AF episodes lasting 24 or more hours (FIG. 6): no patients experienced an AF episode lasting 24 or more hours
[4]; 600 mg, all three treatment months
  decrease in number of AT/AF episodes (median percent change from baseline, FIG. 3): more than 60%
[4]; 600 mg, month 3
  median AF episode duration: 0
[4]; 600 mg, treatment month 1
  decrease in duration of episodes (median percent change from baseline, FIG. 3): more than 50%
[4]; 600 mg, treatment month 2
  decrease in duration of episodes (median percent change from baseline, FIG. 3): more than 70%
[4]; 600 mg, treatment month 3
  decrease in duration of episodes (median percent change from baseline, FIG. 3): ~70%
[4]; 600 mg, down from nearly 24
  mean episode duration (FIG. 4): less than 1 hour
[4]; ITT population, dose group not stated
  Patient GCI: patients a lot or completely satisfied with the test medication: 60.0%
[4]; dose group not stated, ITT and mITT both named
  Patient GCI: patients reporting a lot of improvement or complete relief: 46.7%
[4]; each of the three dose groups
  AFB after one-month washout: returned to essentially the baseline values
[5]
  left and right atrial refractoriness: increased left and right atrial refractoriness comparable with amiodarone
[6]
  metabolism: primarily metabolized by esterases
  pharmacokinetic features: short half-life, rapid onset and offset, small volume of distribution, and cytochrome P450-independent elimination
